Results: US9750753B1, “Method of treating diseases associated with LRRK2 mutation using hexachlorophene” (University of South Florida, priority 2014, dated 2017)
“Also recorded” adds a separate entry of the source.

Tests used:
LRRK2 = settings: cited from earlier work
rats [1] = settings: cited from earlier work; for protection from toxicity induced by B10: pre-treatment prior to administration of B10, rats
[2] = target: T1, wild-type human LRRK2 protein (Homo sapiens, UniProt Q5S007); test: Western blot of overexpressed wild-type LRRK2 in transfected HeLa cells; assay type: cell-based
T1 construct: expressed in transfected cells; host or cells: HeLa
Description: (§1) HeLa cells overexpressing wild-type or mutant human LRRK2 protein and N9 cells expressing endogenous LRRK2 protein were treated with hexachlorophene (labeled as B10 in FIGS. 1 and 2) for 24 hours.
(§2) HeLa cells were grown in DMEM with 10% FBS and 1% penicillin and streptomycin. Cells were transfected with constructs for LRRK2 and the G2019S mutant using Lipofectamine 2000. HeLa cells were used due to the ease of transfection with LRRK2 and its mutants.
(§3) Samples were harvested by using MPER mammalian extraction buffer (Pierce, Thermo Scientific) containing protease and phosphatase inhibitors. After protein estimation using a BCA kit (Pierce, Thermo Scientific), equal amounts of protein from each sample was subjected to gel electrophoresis and western blotting. Phospho (p-) and Total (T-) LRRK2 (abcam) and GAPDH (Meridian Life Sciences) antibodies were used to detect phospho and total LRRK2 and GAPDH, respectively. Analysis of changes in the LRRK2 level was performed using Scion Image software.

mutant (G2019S) LRRK2 = target: T2, mutant (G2019S) LRRK2 (Homo sapiens, UniProt Q5S007, G2019S); test: Western blot of overexpressed mutant (G2019S) LRRK2 in transfected HeLa cells; assay type: cell-based; settings: 1 μM, 24 hours, vs vehicle DMSO control
T2 construct: expressed in transfected cells; host or cells: HeLa
Description: as §1, §2, §3

synuclein = test: Synuclein level in HeLa cells (selectivity control); assay type: cell-based; settings: 1 μM
endogenous LRRK2 protein = target: T3, endogenous LRRK2 protein (Mus musculus, UniProt Q5S006); test: Western blot of endogenous LRRK2 in N9 cells; assay type: cell-based; settings: 1 μM, 24 hours
T3 construct: N9 cells were used because they express high levels of endogenous LRRK2; endogenous in cells; host or cells: N9
Description: as §1
N9 cells were grown in DMEM supplemented with 10% FBS, 1% penicillin and streptomycin, and 2% L-glutamine. N9 cells were used because they express high levels of endogenous LRRK2. They are very difficult to transfect and were only used to study the effect of hexachlorophene on wild-type LRRK2.
as §3

rats [3] = settings: oral; cited from earlier work
[4] = dose of about 10 mg/kg, transgenic TDP43 mouse model; cited from earlier work
[5] = system: Wnt-β-catenin signaling pathway; settings: B lymphoma cells; cited from earlier work
amyloid beta (Aβ) = amyloid beta (Aβ) (Homo sapiens, UniProt P05067); settings: cited from earlier work
[6] = system: primary neuronal cultures; settings: cited from earlier work

T2 sequence (Q5S007 whole entry G2019S): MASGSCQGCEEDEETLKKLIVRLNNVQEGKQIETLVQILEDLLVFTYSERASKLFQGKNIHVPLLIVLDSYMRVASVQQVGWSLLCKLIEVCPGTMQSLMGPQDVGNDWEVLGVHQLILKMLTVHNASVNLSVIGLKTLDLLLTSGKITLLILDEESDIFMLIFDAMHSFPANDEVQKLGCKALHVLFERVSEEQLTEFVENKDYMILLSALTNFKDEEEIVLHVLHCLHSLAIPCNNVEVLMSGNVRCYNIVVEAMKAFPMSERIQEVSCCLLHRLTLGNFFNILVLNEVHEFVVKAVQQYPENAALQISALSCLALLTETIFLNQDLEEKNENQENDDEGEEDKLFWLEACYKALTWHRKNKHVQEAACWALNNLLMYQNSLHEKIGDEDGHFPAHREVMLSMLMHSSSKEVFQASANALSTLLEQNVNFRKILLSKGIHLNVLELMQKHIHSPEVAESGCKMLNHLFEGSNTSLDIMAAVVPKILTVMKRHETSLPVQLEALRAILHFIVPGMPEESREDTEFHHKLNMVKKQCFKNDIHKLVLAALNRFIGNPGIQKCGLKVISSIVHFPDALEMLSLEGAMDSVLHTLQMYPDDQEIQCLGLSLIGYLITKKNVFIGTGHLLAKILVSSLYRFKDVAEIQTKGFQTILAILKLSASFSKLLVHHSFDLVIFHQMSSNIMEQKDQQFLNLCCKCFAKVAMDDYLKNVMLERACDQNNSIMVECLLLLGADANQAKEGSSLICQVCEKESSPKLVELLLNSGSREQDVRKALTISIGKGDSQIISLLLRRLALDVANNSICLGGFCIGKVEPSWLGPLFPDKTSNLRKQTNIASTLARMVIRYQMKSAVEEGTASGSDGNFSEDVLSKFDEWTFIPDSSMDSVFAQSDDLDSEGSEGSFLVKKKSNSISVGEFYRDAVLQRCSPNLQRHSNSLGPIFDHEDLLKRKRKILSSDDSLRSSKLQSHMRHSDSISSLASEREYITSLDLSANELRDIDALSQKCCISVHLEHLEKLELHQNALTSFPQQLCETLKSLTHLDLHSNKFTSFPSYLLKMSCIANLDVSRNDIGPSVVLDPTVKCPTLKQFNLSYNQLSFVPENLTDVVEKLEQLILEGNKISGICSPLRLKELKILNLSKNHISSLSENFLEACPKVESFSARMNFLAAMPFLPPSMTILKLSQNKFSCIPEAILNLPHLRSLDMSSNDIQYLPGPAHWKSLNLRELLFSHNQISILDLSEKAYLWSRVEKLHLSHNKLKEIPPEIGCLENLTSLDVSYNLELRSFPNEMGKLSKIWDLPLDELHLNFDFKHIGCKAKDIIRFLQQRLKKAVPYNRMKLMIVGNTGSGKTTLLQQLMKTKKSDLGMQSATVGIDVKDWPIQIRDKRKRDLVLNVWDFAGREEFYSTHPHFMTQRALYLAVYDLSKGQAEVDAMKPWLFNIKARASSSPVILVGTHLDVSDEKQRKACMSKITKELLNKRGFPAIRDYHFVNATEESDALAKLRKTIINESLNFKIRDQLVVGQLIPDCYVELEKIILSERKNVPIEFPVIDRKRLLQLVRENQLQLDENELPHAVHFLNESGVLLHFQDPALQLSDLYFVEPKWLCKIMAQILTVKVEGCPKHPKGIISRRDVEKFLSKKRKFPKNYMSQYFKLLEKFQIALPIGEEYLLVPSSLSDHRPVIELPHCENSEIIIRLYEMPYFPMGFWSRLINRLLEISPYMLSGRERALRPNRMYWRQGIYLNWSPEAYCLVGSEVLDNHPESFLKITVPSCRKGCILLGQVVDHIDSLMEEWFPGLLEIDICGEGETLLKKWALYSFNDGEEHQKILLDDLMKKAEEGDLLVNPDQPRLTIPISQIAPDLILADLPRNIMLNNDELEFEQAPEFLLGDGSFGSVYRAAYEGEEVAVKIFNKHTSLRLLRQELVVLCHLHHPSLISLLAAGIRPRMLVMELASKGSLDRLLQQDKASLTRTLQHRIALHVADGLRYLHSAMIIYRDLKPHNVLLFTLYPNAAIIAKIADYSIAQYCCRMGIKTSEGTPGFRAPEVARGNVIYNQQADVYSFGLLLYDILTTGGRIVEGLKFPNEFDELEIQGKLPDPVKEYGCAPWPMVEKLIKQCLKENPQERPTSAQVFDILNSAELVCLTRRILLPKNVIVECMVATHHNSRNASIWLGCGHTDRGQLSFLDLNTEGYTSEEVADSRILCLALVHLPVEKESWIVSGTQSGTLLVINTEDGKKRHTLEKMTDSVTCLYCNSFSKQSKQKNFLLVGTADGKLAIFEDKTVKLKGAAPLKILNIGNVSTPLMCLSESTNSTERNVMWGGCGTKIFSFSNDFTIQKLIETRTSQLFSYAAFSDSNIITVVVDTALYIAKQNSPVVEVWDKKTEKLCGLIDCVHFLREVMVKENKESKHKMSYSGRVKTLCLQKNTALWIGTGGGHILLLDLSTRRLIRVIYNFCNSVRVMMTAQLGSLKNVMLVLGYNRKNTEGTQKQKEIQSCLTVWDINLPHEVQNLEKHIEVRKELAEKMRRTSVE
T3 sequence (Q5S006 whole entry): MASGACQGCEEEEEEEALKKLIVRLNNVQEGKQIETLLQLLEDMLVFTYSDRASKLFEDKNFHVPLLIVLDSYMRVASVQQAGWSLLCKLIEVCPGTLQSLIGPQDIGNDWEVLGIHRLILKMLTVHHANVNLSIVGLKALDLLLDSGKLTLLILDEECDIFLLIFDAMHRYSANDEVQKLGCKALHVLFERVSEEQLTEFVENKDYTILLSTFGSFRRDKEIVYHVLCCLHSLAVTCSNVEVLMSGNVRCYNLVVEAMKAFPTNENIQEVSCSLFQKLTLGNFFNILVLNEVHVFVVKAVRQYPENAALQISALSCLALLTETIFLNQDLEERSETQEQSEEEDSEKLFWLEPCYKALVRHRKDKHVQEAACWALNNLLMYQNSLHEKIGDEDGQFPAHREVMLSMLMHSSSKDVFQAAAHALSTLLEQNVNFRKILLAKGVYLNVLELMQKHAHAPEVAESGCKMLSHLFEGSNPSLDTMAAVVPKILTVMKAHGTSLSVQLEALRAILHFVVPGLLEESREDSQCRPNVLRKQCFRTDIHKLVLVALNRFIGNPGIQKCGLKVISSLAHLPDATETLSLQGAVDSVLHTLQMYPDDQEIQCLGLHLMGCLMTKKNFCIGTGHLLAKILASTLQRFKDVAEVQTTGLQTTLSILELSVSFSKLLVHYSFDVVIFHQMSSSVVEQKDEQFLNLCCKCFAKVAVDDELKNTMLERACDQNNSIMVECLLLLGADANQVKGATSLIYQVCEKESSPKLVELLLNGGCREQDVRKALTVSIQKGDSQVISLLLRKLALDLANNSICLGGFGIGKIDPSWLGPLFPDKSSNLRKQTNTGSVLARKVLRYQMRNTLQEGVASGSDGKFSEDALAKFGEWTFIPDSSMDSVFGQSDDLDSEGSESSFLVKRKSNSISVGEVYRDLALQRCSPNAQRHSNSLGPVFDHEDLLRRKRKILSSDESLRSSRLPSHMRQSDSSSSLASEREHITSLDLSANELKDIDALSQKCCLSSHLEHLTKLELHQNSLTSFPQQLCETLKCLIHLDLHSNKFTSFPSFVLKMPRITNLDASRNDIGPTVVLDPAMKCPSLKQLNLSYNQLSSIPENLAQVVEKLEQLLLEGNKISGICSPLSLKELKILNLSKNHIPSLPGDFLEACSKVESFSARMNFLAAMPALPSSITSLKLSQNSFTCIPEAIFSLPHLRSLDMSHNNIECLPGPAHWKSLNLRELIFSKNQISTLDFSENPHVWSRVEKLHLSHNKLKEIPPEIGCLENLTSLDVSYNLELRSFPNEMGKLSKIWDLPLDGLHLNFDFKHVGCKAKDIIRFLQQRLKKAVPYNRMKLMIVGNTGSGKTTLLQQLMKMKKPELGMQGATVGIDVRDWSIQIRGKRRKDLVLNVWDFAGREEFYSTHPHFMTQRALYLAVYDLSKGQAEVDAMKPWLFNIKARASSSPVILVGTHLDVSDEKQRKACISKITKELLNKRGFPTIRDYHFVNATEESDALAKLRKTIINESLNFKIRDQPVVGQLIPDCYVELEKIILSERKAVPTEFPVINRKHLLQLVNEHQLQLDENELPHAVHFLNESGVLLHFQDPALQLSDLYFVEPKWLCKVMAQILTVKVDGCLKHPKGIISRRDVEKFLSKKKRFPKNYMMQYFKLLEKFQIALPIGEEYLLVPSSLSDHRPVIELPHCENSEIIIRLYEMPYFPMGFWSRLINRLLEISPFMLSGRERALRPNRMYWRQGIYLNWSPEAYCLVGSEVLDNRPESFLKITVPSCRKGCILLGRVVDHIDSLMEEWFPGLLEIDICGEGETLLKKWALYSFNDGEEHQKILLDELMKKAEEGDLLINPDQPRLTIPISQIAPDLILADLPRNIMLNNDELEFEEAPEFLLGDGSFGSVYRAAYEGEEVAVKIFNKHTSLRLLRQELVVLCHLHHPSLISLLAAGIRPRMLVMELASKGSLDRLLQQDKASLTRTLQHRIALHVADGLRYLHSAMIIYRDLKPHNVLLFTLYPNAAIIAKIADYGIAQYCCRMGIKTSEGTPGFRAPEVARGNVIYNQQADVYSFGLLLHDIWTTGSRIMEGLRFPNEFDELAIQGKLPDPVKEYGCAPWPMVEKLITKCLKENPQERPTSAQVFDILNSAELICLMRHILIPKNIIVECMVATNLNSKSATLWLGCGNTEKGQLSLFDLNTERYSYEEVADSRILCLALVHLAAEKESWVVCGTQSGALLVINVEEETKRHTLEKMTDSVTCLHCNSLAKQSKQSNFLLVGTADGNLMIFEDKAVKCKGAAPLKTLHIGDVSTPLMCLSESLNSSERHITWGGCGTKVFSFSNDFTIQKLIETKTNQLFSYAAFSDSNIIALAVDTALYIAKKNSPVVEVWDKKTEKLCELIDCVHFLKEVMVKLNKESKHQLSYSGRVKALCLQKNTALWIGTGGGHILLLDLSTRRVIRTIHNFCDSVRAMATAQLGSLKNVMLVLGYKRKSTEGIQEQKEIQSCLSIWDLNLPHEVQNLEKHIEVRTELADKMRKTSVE
T1 sequence (Q5S007 whole entry): as the sequence (Q5S007 whole entry G2019S) above, with S2019G counted along it
Sequence of amyloid beta (Aβ) (P05067 672-713 limits assumed): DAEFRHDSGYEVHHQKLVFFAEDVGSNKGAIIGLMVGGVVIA

CC1=C(CO)C(=O)O[C@@H]([C@@H](C)[C@H]2CC[C@H]3[C@@H]4C[C@H]5O[C@]56[C@@H](O)C=CC(=O)[C@]6(C)[C@H]4CC[C@]23C)C1 [withaferin A]
clearance of LRRK2 (LRRK2; WA in the presence of celastrol, additive manner): enhanced
LRRK2 levels in cells (LRRK2; compound alone, dose and time dependent manner): reduced

CCOc1ccc2c(c1)C(C)=CC(C)(C)N2 [ethoxyquin]
protection from toxicity induced by B10 (rats [1]): protects

C[N+](C)(C)C[C@H](O)CC(=O)[O-] [L-carnitine]
protection from toxicity induced by B10 (rats [1]): protected

CCCC(C(=O)OCCN(CC)CC)(c1ccccc1)c1ccccc1.Cl [SKF-525A, 2-diethylaminoethyl-2,2-diphenylvalerate-Hcl]
protective effect by route of administration (rats [1]; oral vs ip administration of the pre-treatment agent): only occurred upon oral administration
protection from toxicity induced by B10 (rats [1]): lessened toxicity

Oc1c(Cl)cc(Cl)c(Cl)c1Cc1c(O)c(Cl)cc(Cl)c1Cl [hexachlorophene, Hexachlorophene]
overexpressed wild-type LRRK2 level ([2]; HeLa cells, 1 μM, 24 hours, vs vehicle DMSO control): selectively reduces; also recorded: decreased
period of maximal effect on LRRK2 levels ([2]; cell line not stated (HeLa and N9 cells used)): 24 h
overexpressed mutant (G2019S) LRRK2 level (mutant (G2019S) LRRK2): selectively reduces; also recorded: decreased
effect on synuclein (synuclein): does not affect
endogenous pLRRK2 level (endogenous LRRK2 protein): reduces
expression of endogenous LRRK2 (endogenous LRRK2 protein): reduces
cell death (LDH release) (HeLa cells): minimal amounts of cell death
cell death (LDH release) (N9 cells): minimal amounts of cell death
LD50 (rats [3]): 66 mg/kg
brain permeability [4]: 50%
effect on Wnt-β-catenin signaling pathway [5]: inhibit
effect on Aβ fibril formation (amyloid beta (Aβ)): inhibit
protection from Aβ-induced toxicity [6]: protect
